For experiment [1], the system named is Primary culture human renal proximal tubular epithelial cells. Nature of the experiment: IL-18 release from renal tubular epithelial cells with paraquat stimulation. It counts as cell-based. To be noted: renal tubular epithelial cells, 100 nM paraquat 15 minutes; SOD 1-20 U/ml or water-soluble vitamin E 100 nM-10 mM/ml.
Description: Primary culture human renal proximal tubular epithelial cells (purchased from CAMBREX Company) were cultured in a basal medium for renal tubular cells: contents 10 μg/ml hEGF (recombinant human epithelial cell growth factor) 0.5 ml, 5 mg/ml insulin 0.5 ml, 0.5 mg/ml hydrocortisone 0.5 ml, FBS (fetal bovine serum) 2.5 ml, 0.5 mg/ml epinephrine 0.5 ml, 6.5 μg/ml triiodothyronine 0.5 ml, 10 mg/ml transferrin 0.5 ml, 50 mg/ml gentamycin, 50 μg/ml amphotericin-B 0.5 ml), in petri dishes for cell culture 6 cm in diameter at 1.0-2.0×10^6/dish. This was cultured in the aforementioned medium containing 100 nM of paraquat, which is an active oxygen generator, for 15 minutes, after which the medium was exchanged with the same but paraquat-free medium. After the cells were further cultured for 1 hour, the medium was collected, and the concentration of IL-18 protein in the medium was measured.
In a further experiment the test system is Synovial membrane tissue. The experiment in a line: IL-18 release from synovial membrane tissue with paraquat stimulation. It counts as cell-based, human. The note with it: synovial membrane tissue of articular rheumatism patient, 100 nM paraquat 15 minutes; SOD 1-20 U/ml. As to the method: Synovial membrane tissue collected from the articular synovial membrane at a lesion site of an articular rheumatism patient was subjected to tissue culture in an RPMI-1640 medium containing 10% fetal bovine serum by the method of Tanaka et al. (Tanaka M, Harigai M, Kawaguchi Y, Ohta S, Sugiura T, Takagi K, Ohsako-Higami S, Fukasawa C, Hara M, Kamatani N., J. Rheumatol. 2001 August; 28(8):1779-87). The medium was exchanged with the aforementioned medium containing 100 nM of paraquat, which is an active oxygen generator, and the cells were cultured for 15 minutes, after which the medium was exchanged with a paraquat-free medium, and the cells were further cultured for 1 hour, after which the medium was collected, and the concentration of IL-18 protein in the medium was measured.

The test system of a further experiment is Abdominal macrophages. The experiment in a line: IL-18 release from macrophages with paraquat stimulation. It counts as cell-based, mouse. The note with it: 100 nM paraquat 15 minutes, SOD 1-20 U/ml. As to the method:
Abdominal macrophages isolated from mice by the method of Hamilton et al. (Hamilton T A, Weiel J E, Adams D O., J. Immunol. 1984 May; 132(5):2285-90) were cultured in Dulbecco's minimum essential medium at 1.0-2.0×10^5/dish. The medium was exchanged with the aforementioned medium containing 100 nM of paraquat, which is an active oxygen generator, and the cells were cultured for 15 minutes, after which the medium was exchanged with a paraquat-free medium, and the cells were further cultured for 3 hours, after which the medium was collected, and the concentration of IL-18 protein in the medium was measured.

Experiment [2] relates to Primary culture human skin keratinocytes. The experiment in a line: IL-18 release from keratinocytes with paraquat stimulation. It counts as cell-based. To be noted: keratinocytes, 1 μM paraquat 15 minutes; SOD 1-20 U/ml or water-soluble vitamin E 100 nM-10 mM/ml. The method, then: Primary culture human skin keratinocytes (keratinocytes) were cultured in a basal medium for keratinocytes contained in petri dishes for cell culture 6 cm in diameter at 1.0-2.0×10^6/dish. This was cultured in the aforementioned medium containing 1 μM of paraquat, which is an active oxygen generator, for 15 minutes, after which the medium was exchanged with a paraquat-free medium, and the cells were further cultured for 1 hour, after which the medium was collected, and the concentration of IL-18 protein in the medium was measured.

A further experiment relates to IL-18. Nature of the experiment: Plasma IL-18 level in restraint stress mice (ELISA). It counts as in vivo, mouse. The note with it: given i.p. during restraint (Ac-YVAD-CHO 200 μM/50 μl, Z-FA-fmk 100 μM/50 μl, SB-203580 100 μg, SOD-1 20 U, DPI 30 μg). As to the method:
(§1) For restraint stress, each mouse was kept in a restrainer (a round plastic tube 27 mm in diameter) for 1, 3 or 6 hours, and IL-18 levels were measured. Regarding the analysis of IL-6, each mouse was restrained as described above, and then housed in the starting cage for 6 hours, after which a measurement was performed.
After restraint, each mouse was anesthetized with diethyl ether, and blood was drawn into an EDTA-containing tube. Plasma was separated by centrifugation at 4° C. and 10000×g for 10 minutes, and stored at −80° C. IL-18 and IL-6 were analyzed by ELISA using Quantikine™ immunoassay kit (R&D Systems) and OptEIA™ (BD-Pharmingen), respectively.
(§2) The anti-ACTH antiserum (50 μl, 1:1), dexamethasone (1 ng/50 μl PBS(−)) or the anti-IL-18 antibody (50 μl, 1:1) was administered intraperitoneally to each mouse; after 10 minutes elapsed, the animal was kept in a restraint tube for 6 hours. Synthetic ACTH (250 μg/50 μl PBS(−)) was injected to the left leg; after 6 hours elapsed, the mice were subjected to the experiment.
(§3) Each mouse was kept in a restrainer for 1 hour, and Ac-YVAD-CHO (200 μM/50 μl PBS(−)), Z-FA-fmk (100 μM/50 μl PBS(−)) and SB-203580 (100 μg/50 μl PBS(−) per mouse) were administered intraperitoneally. 1 and 3 hours after the start of restraint, SOD-1 (20 U) and DPI (30 μg) were administered intraperitoneally to the mouse, and samples were analyzed by Western blotting.

For the next experiment, the system named is procaspase-11. The experiment in a line: Procaspase-11 protein in the adrenal of restraint stress mice (Western blotting). To be noted: given i.p. during restraint. It counts as in vivo, mouse. As to the method:
as §3
Western blot analysis of IL-18 and phosphorylated P38MAP kinase in adrenal tissue was performed as described below. The adrenal tissue was homogenized in an immunoprecipitation (IP) buffer solution (50 mM Tris pH 7.4, 150 mM NaCl, 0.5% NP-40 and 0.5% sodium deoxycholate) containing a protease inhibitor mixture (manufactured by Roche Diagnostics) using a Polytron homogenizer. […] The aforementioned membrane was incubated with an antibody (IL-18, phosphorylated (Thr180/Tyr182) P38 MAP kinase, caspase-1 or caspase-11), and the reacted protein was detected using an ECL plus system (manufactured by Amersham biosciences). Procaspase-11 and activated P38 MAP kinase were quantified using a Science Lab 99 image analysis system (manufactured by Fujifilm).
For orientation: In western blotting, separated proteins are transferred to a membrane and probed.

The subject of experiment [3] is Primary culture human skin keratinocytes. Nature of the experiment: IL-18 release from keratinocytes with UV-B ray irradiation. It counts as cell-based. The note with it: 100 mJ UV-B, SOD 1-20 U/ml or water-soluble vitamin E 100 nM-10 mM/ml. The method, then:
Primary culture human skin keratinocytes (keratinocytes: purchased from CAMBREX Company) were cultured in a basal medium for keratinocytes contained in petri dishes for cell culture 6 cm in diameter at 1.0-2.0×10^6/dish. This was irradiated with 100 mJ of ultraviolet B rays (UV-B rays), after which the cells were cultured for 1 hour, after which the medium was collected, and the concentration of IL-18 protein in the medium was measured. Also, after the UV-B ray treatment, the cells were cultured in a medium containing SOD (1, 2.5, 5, 10, 20 U/ml), which is an active oxygen eliminator, or water-soluble vitamin E (100 nM, 1, 2.5, 5, 10 mM/ml), and the concentration of IL-18 protein in the medium was measured. In the keratinocytes, the activation and release of IL-18 by the active oxygen molecular species were observed. Furthermore, these were suppressed by SOD, which is an active oxygen eliminator, or by vitamin E, which neutralizes active oxygen, dose-dependently (FIGS. 7C and 7D).

Another experiment deals with IL-18 precursor. Nature of the experiment: IL-18 (precursor) level in the adrenal of restraint stress mice. It counts as in vivo, mouse. To be noted: given i.p. during restraint. The method, then:
as §1, §2, §3
Western blot analysis of IL-18 and phosphorylated P38MAP kinase in adrenal tissue was performed as described below. […] Procaspase-11 and activated P38 MAP kinase were quantified using a Science Lab 99 image analysis system (manufactured by Fujifilm).

In the case of “SOD: superoxide dismutase (SOD)-1 purchased from Sigma; active oxygen eliminator”, the “activation and release of IL-18 into the medium” value (in experiment [1]; in the experiment on Synovial membrane tissue; in the experiment with Abdominal macrophages; in experiment [2]; in experiment [3]) was “suppressed” throughout. The “stress-induced increase in plasma IL-18 level” value in the experiment on IL-18 is “reduced”. In addition, the “stress-induced increase in procaspase-11 protein” value in the experiment with procaspase-11 is recorded as “reduced”. The “IL-18 precursor protein level in the adrenal” value with IL-18 precursor is reported as “did not reduce”.
